melting point [°C]	SMILES
138 to 141	CC(C)CN1CC2(Cc3ccccc3)CC(=O)CC(C(O)Cc3ccccc3)(C1)C2O (racemic) [Compound 16, 5(RS)-methylphenyl-9(RS)-hydroxy-1(RS)-((1′-hydroxy)-2′-phenyl)-ethyl-3-(2″-methyl)propyl-3-azabicyclo[3.3.1] nonan-7-one]
145.5 to 147	O=C1CC2(Cc3ccccc3)CN(Cc3ccccc3)CC([C@@H](O)Cc3ccccc3)(C1)C2O (mixture of isomers) [Compound 18, 5(RS)-methylpheny-9(RS)-hydroxy-1(RS)-((1′-hydroxy)-2′-phenyl)-ethyl-3-benzyl-3-azabicyclo[3.3.1]nonan-7-one]
164 to 165	CC(C)CN1CC2(Cc3ccccc3)CC(=O)CC([C@@H](O)Cc3ccccc3N)(C1)C2O (mixture of isomers) [Compound 20]

From patent US20040254213A1, “Use of bicyclo compounds for treating alzheimer's disease” (priority 2001, published 2004)
